Where two headings read alike, the source gives them in different places.
How the values were obtained:
[1] = tested on: UVB-irradiated human dermal fibroblasts (HDFs); assay: UVB-induced senescence assay: SA-β-Gal staining; type: cell-based; details: for β-Gal: HDF, 2 cycles of UVB, compound day 1 to 7, Figure 2B; for SA-β-Gal accumulation/staining / prevention of UV-induced cellular senescence / effect of sirtuin inhibitor on the protective effect of SA on senescence (SA-β-Gal and HAS2 expression): UVB-irradiated HDF; for prevention of UV-induced cellular senescence: SA-β-Gal and HAS2 markers; for effect of sirtuin inhibitor on the protective effect of SA on senescence (SA-β-Gal and HAS2 expression): SA 10, 25, 50 mM plus EX-527 1 μM, AGK2 2 μM or OSS128167 200 μM; for β-Gal: key: ↑: increase; ↓: decrease; hyphens that indicate no effect (-)
Protocol: (§1) In the second approach, we established a method for inducing senescence in these cells with 2 cycles of UVB irradiation 72h apart (Figure 2A). The use of UVA to induce senescence was discarded due to its considerably longer time requirement, being unsuitable to screen 30 compounds within a reasonable period. Cells were treated with these compounds throughout the duration of the assay and cellular senescence was monitored with two markers: accumulation of SA-β-galactosidase (SA-β-Gal) activity, and the decrease in expression of HAS2 (hyaluronic acid synthase 2), a previously reported marker of skin senescence.
(§2) Figure 2 (A) Schematic representation of the protocol for senescence induction using UVB irradiation. Cells were treated -/+ the compounds from day 1 to 7 after seeding, irradiated with UVB on days 2 and 5 and harvested for analysis on day 7. […] (C) Phase-contrast (left column) and bright field (right column) microscope images of SA-β-Gal staining showing non-irradiated cells, UVB-irradiated cells non-treated and treated with Gallic acid or Shikimic acid at the indicated concentrations. (D) Percentage of SA-β-Gal positive cells and (E) Relative HAS2 mRNA levels in non-irradiated cells, UVB-irradiated cells and UVB-irradiated cells treated with Gallic acid or Shikimic acid at the indicated concentrations. Student T-test, *p<0.05, **p<0.01, ***p<0.001.
(§3) The protocol for senescence induction using UVB irradiation is described in the Supplementary Methods. SA-β-Gal staining, WST-1, sulforhodamine B (SRB) and trypan blue assays were performed as previously described. For the siRNA experiments, the protocol for senescence induction using UVB irradiation was the same as in the Supplementary Methods. Specific siRNA (Horizon discovery, UK) for SIRT1, SIRT2, SIRT6, BiP or scramble siRNA were incubated for 6 hours before each irradiation step.
(§4) Senescence induction by UVB irradiation For the non-irradiation control conditions, HDF were […]
(§5) After 24h, culture medium was removed and well plates. After 24h, culture medium was removed replaced by fresh cell culture medium containing the and replaced with fresh cell culture medium containing compounds at different concentrations. After 24h, the compounds at different concentrations. […]
(§6) cell culture medium was removed, and cells were cells/plate in fresh cell culture medium containing the irradiated at 25 mJ/cm2 of UVB light (312 nm) in a Bio- compound in 6-well plates. After 3 days, cells were […]
(§7) amount of PBS. PBS was then removed and fresh cell fresh cell culture medium containing the compound in culture medium with the compound was added to each 6-well plates. After 2 days, cells were processed well. After 3 days, cells were irradiated again under the according to the qPCR, β-Gal staining, apoptosis, cell same conditions. After 2 days, cells were processed cycle or immunofluorescence protocols. according to the qPCR, β-Gal staining, apoptosis, cell cycle or immunofluorescence protocols.

[2] = tested on: H3K9ac (the target of SIRT1, SIRT2 and SIRT6); assay: Sirtuin activity assay in HDF: H3K9ac levels (Western blot); type: cell-based, human; details: HDF treated 24h; for SIRT1,2,6 H3K9ac: Figure 1B; for SIRT1,2,6 H3K9ac: key: ↑: increase; ↓: decrease; hyphens that indicate no effect (-)
Protocol: (§8) Figure 1 (A) Schematic representation of the compound testing for sirtuin activity evaluation in HDF. Cells were treated with or without the compounds for 24h and harvested for analysis. […] (C) Western Blot analysis and (D) quantification of H4K16ac and H3K9ac levels in cells treated with Resveratrol or Shikimic acid at the indicated concentrations. H4K16 and H3K9 levels were normalized to H4 and H3 levels respectively. Student T-test, *p<0.05, **p<0.01, ***p<0.001.
(§9) HDFs were plated in 100x20 mm2 cell culture plates and after 24h, fresh cell culture medium containing the compounds was added. After 24h, cells were detached with cell scrapers, harvested, and processed for qPCR or western blot.
(§10) Protein levels were analyzed as previously described. Cells were directly lysed in 1x Laemmli Buffer (Bio-Rad, USA), incubated at 95° C and centrifuged. Supernatant was subjected to SDS-polyacrylamide gel electrophoresis, and successive steps were performed as described. The list of antibodies used is included in Supplementary Table 2.

[3] = tested on: H4K16ac (the target of SIRT1 and SIRT2); assay: Sirtuin activity assay in HDF: H4K16ac levels (Western blot); type: cell-based, human; details: HDF treated 24h; for SIRT1,2 H4K16ac: Figure 1B; for SIRT1,2 H4K16ac: key: ↑: increase; ↓: decrease; hyphens that indicate no effect (-)
Protocol: as §8, §9, §10

[4] = tested on: primary human dermal fibroblasts (HDFs)
Description: In our efforts to identify novel factors that could prevent skin cell senescence, we developed a screening process to identify new modulators of the protective role of sirtuins in UV-induced senescence. For this purpose, we established a culture of primary human dermal fibroblasts (HDFs). […] Our first step in the screening was to establish the optimal concentrations of these compounds in the case of HDFs. […] Once established, we took these parameters into account to decide the specific working range of concentrations for each compound.
Human dermal fibroblasts (HDFs) (Promocell, Germany) from 40-year old Caucasian women were used as the in vitro model for compound viability and efficacy screening. Cells were cultured in Dulbecco's modified eagle medium (DMEM) low glucose (Biowest, France) supplemented with 10% fetal bovine serum (FBS) (Capricorn Scientific, Germany) and 10 U/mL penicillin/streptomycin (Biowest, France) in a humidified incubator at 37° C and 5% CO2. For cell passage, cells at 80% confluence were trypsinized and plated at 60% confluence. Cells between passage 13 and 18 were used for the assays. For the SIRT1 in vitro assay, HEK293 cells (ATCC, USA), used to transfect and immunoprecipitate SIRT1 protein, were grown in DMEM high glucose (Thermo Fisher Scientific, USA), supplemented with 10% FBS in a humidified incubator at 37° C and 5% CO2. The following experiments were all performed in triplicate.
as §3

[5] = tested on: HAS2 (hyaluronic acid synthase 2); assay: UVB-induced senescence assay: HAS2 gene expression (qPCR); type: cell-based, human; details: HDF, 2 cycles of UVB, compound day 1 to 7, Figure 2B; note: key: ↑: increase; ↓: decrease; hyphens that indicate no effect (-)
Protocol: as §1, §2
RNA was extracted from cell pellets using the Total RNA Purification Kit (Norgen, Canada), according to the manufacturer’s protocol. Extracted RNA was quantified using a NanoDrop® ND-1000 UV-Vis Spectrophotometer (Thermo Fisher Scientific, USA) and 300 ng of RNA were retrotranscribed to cDNA using the PrimeScriptTM RT reagent kit (Takara Bio Inc., Japan). cDNA was diluted 1/10 in ultrapure water and qPCR mix was prepared by adding cDNA (12 ng), SYBR green supermix (Bio Rad, USA), forward and reverse primers (0.2μM). The primers and their respective sequences are listed in Supplementary Table 1. qPCR protocol included one step at 95° C for 30 s, 40 cycles at 95° C for 10s, and 60° C for 1min. The results were analyzed with Bio-Rad CFX Manager software. BACT was used as a housekeeping gene to normalize gene expression.
as §4, §5, §6, §7

[6] = HDFs, WST-1 cell viability test
[7] = HDFs, WST-1 cell viability test, maximum non-cytotoxic dose

SMILES | β-Gal [1] | SA-β-Gal accumulation/staining [1] | SIRT1,2,6 H3K9ac [2] | SIRT1,2 H4K16ac [3] | LD50 [4, 6] | Max. non-cyt. doses [4, 7] | HAS2 expression [5] | LD50 ([4]; female, human) | Max. non-cyt. doses ([4]; female, human) | other results
O=C(O)CCCC[C@@H]1CCSS1 (racemic) [Lipoic acid] | - | did not change the level of SA-β-Gal staining | - | - |  |  |  |  |  | Max. non-cyt. doses [4]: 1 mM
O=Cc1ccc(O)c(O)c1 [3,4-dihydroxybenzaldehyde] |  |  |  |  | 1.08 mM | 0.1 mM |  |  |  | prevention of UV-induced cellular senescence [1]: did not prevent cellular senescence; effect on H3K9ac levels [2]: induced a similar effect on both targets; effect on H4K16ac levels [3]: induced a similar effect on both targets
N#C/C(=C\c1ccc(-c2cc(Cl)ccc2Cl)o1)C(=O)Nc1cccc2ncccc12 [AGK2, reference compound] |  |  |  |  |  |  |  |  |  | effect of sirtuin inhibitor on the protective effect of SA on senescence (SA-β-Gal and HAS2 expression) [1]: produced no clear effect
NC(=O)NC1NC(=O)NC1=O (stereo not drawn) [Allantoin, reference compound] | - |  |  | - |  |  | - | 100 mM | 50 mM | 
C=C1CC[C@@H]2[C@](C)(CO)[C@H](O)CC[C@@]2(C)[C@@H]1C/C=C1/C(=O)OC[C@H]1O [Andrographolide] | - |  |  |  | 0.124 mM | 0.01 mM | - |  |  | prevention of UV-induced cellular senescence [1]: did not prevent cellular senescence; effect on H3K9ac levels [2]: induced a similar effect on both targets; effect on H4K16ac levels [3]: induced a similar effect on both targets
NCCC(=O)N[C@@H](Cc1cnc[nH]1)C(=O)O [Carnosine] | - | did not change the level of SA-β-Gal staining | - | - | 85.46 mM | 25 mM |  |  |  | 
COc1cc(/C=C/C(=O)O)ccc1O [Ferulic acid] | - | did not change the level of SA-β-Gal staining | - | - | 16.5 mM |  |  |  |  | Max. non-cyt. doses [4]: 7.5 mM
O=C(O)c1cc(O)c(O)c(O)c1 [Gallic acid] | - |  | - | - |  |  |  | 0.179 mM | 0.1 mM | 
C=C[C@@H]1C2=CCOC(=O)C2=CO[C@H]1O[C@@H]1O[C@H](CO)[C@@H](O)[C@H](O)[C@H]1O [Gentiopicrin] | - |  | - |  | 13.825 mM |  | - |  | 2.5 mM | 
COC1=C(OC)C(=O)C(CCCCCCCCCCO)=C(C)C1=O [Idebenone, reference compound] | - |  | - |  |  |  | - | 0.021 mM | 0.01 mM | 
COc1cc(-c2coc3cc4c(c(OC)c3c2=O)OCO4)cc(OC)c1OC [Irisflorentin] | - |  | - | - | 0.049 mM | 0.01 mM |  |  |  | 
O=C(Nc1ccc(O)c(C(=O)O)c1)c1cccc(NC(=O)c2ccco2)c1 [OSS128167, reference compound] |  |  |  |  |  |  |  |  |  | effect of sirtuin inhibitor on the protective effect of SA on senescence (SA-β-Gal and HAS2 expression) [1]: produced no clear effect
O=C(CCc1ccc(O)cc1)c1c(O)cc(O)cc1O [Phloretin] | - |  | - |  |  |  |  | 0.166 mM | 0.05 mM | effect on H4K16ac levels [3]: had an effect solely on H4K16ac
C=C[C@](C)(O)CC[C@@H]1[C@@]2(C)CCCC(C)(C)[C@@H]2CC[C@@]1(C)O [Sclareol] | - |  | - |  | 0.04 mM | 0.02 mM | - |  |  | 
NCCS(=O)(=O)O [Taurine] | - | did not change the level of SA-β-Gal staining | - | - |  |  |  | 396.58 mM | 150 mM | 
C[C@@H]1O[C@@H](O[C@@H]2[C@@H](O)[C@H](OCCc3ccc(O)c(O)c3)O[C@H](CO)[C@H]2OC(=O)/C=C/c2ccc(O)c(O)c2)[C@H](O)[C@H](O)[C@H]1O [Verbascoside] | - | did not change the level of SA-β-Gal staining | - | - | 0.122 mM | 0.05 mM |  |  |  | 

Source: article PMC8148468, “Shikimic acid protects skin cells from UV-induced senescence through activation of the NAD+-dependent deacetylase SIRT1” (Aging (Albany NY), 2021)
